We go through 1 molecule from patent US10028960B2, “Pyrimidine compounds as JAK kinase inhibitors” (THERAVANCE BIOPHARMA R&D IP, LLC, priority 2016, dated 2018).

Where two headings read alike, the source gives them in different places.

Data set [1] has as its system IL-13 induced STAT6 phosphorylation in HT-29 human colorectal adenocarcinoma cells. Put plainly: Cellular JAK potency assay: inhibition of IL-13 induced STAT6 phosphorylation. In kind it is cell-based. To be noted: Homo sapiens.
Data set [2] in a line: Determination of absorption in cannulated rats. In kind it is in vivo, Sprague Dawley rats. To be noted: rat. The procedure: Oral bioavailability (F %), fraction absorbed (Fa %) and fraction escaping hepatic clearance (Fh %) were determined in Sprague Dawley rats from the following two studies:
(1) Pharmacokinetics in rats following an IV dose of test compound: Following IV dosing, plasma samples were typically collected from 0-6 hr. Drug levels were determined using an LC-MS-MS method. The resulting drug levels were used to compute the IV pharmacokinetic parameters: AUC IV and Dose IV.
(2) Rats that have been cannulated in their portal vein (PV) and also in their jugular vein (JV) were dosed orally with test compound. Following oral dosing, plasma samples were typically collected from 0-6 hr from both the portal vein and the jugular vein. Drug levels were determined using an LC-MS-MS method. The resulting drug levels were used to compute the following pharmacokinetic parameters: AUC PO PV, AUC PO JV, and Dose PO.
Using data derived from the above studies, the oral bioavailability F %, and the quantities Fa % and Fh % were calculated from the following formulas: F %=(AUC PO JV/AUC IV)*(Dose IV/Dose PO)*100 Fa %=(AUC PO PV/AUC IV)*(Dose IV/Dose PO)*100 Fh %=AUC PO JV/AUC PO PV
AUC PO JV=Area under the curve following oral dose and plasma collected from the jugular vein
AUC PO PV=Area under the curve following oral dose and plasma collected from the portal vein
AUC IV=Area under the curve following an intravenous dose
Dose IV=Intravenous Dose in mg/kg
Dose PO=Oral Dose in mg/kg

In general, bioavailability refers to dose-corrected exposure relative to a reference, in per cent. On to `COc1cc(Nc2cc(CO)[nH]n2)nc(N(C)[C@@H]2C[C@H]3CCC[C@@H](C2)N3S(=O)(=O)N2CC(C#N)C2)n1` [Example 2, 1-(((1R,3s,5S)-3-((4-((5-(Hydroxymethyl)-1H-pyrazol-3-yl)amino)-6-methoxypyrimidin-2-yl)(methyl)amino)-9-azabicyclo[3.3.1]nonan-9-yl)sulfonyl)azetidine-3-carbonitrile], for which the IC50 in data set [1] (HT-29, cellular assay, Assay 2, read-out: IC50 for inhibition of IL-13) was not above 50 nM; in data set [1] (IL-13 induced STAT6 phosphorylation, HT-29 cells, read-out: HT-29 (pIC50) (converted)) it was 31.6 to 200 nM. Moreover, the bioavailability in data set [2] (Sprague Dawley, plasma (jugular vein), oral vs IV, read-out: oral bioavailability (F %)) was less than 5%. Also, in data set [2] (oral, portal vein), the “absorption at the portal vein (Fa %)” value is “less than 25%”.
